ChEMBL document CHEMBL5465560, “Selectivity Literature for EUbOPEN Chemogenomic Library” (2024)
Values belong to the compound of their own block, whether it stands above or below them.

How the values were obtained:
[1] = test system: Fibroblast growth factor receptor 3 (Homo sapiens), P22607 [G697C]; assay: (§1) Selectivity interaction (KinomeScan (DiscoverX)) EUB0000699a FGFR3; settings: at 10 µM
[2] = biological target: Fibroblast growth factor receptor 3 (Homo sapiens, UniProt P22607); assay: as §1; settings: at 10 µM
[3] = biological target: Serine/threonine-protein kinase 35 (Homo sapiens) (UniProt Q8TDR2); assay: Selectivity interaction (KinomeScan (DiscoverX)) EUB0000092b STK35; settings: at 10 µM
[4] = biological target: cAMP-dependent protein kinase catalytic subunit beta (Homo sapiens) (UniProt P22694); assay: Selectivity interaction (KinomeScan (DiscoverX)) EUB0000655a PRKACB; settings: at 10 µM
[5] = biological target: ALK tyrosine kinase receptor (Homo sapiens, UniProt Q9UM73); assay: Selectivity interaction (ProQinase) EUB0000171b ALK; settings: at 1 µM
[6] = biological target: Tyrosine-protein kinase JAK2 (Homo sapiens, UniProt O60674); assay: Selectivity interaction (NanoBRET assay (HEK293T cells)) EUB0001559a JAK2; type: cell-based, HEK-293T
[7] = biological target: Transcription initiation factor TFIID subunit 1 (Homo sapiens) (UniProt P21675); assay: Selectivity interaction (Human bromodomain panel (DSF assay)) EUB0000233b TAF1
[8] = biological target: Vascular endothelial growth factor receptor 1 (Homo sapiens) (UniProt P17948); assay: Selectivity interaction (KinomeScan (DiscoverX)) EUB0000666a FLT1; settings: at 10 µM
[9] = biological target: High affinity nerve growth factor receptor (Homo sapiens, UniProt P04629); assay: Selectivity interaction (KinomeScan (DiscoverX)) EUB0000666a NTRK1; settings: at 10 µM
SRSF protein kinase 1 = SRSF protein kinase 1 (Homo sapiens, UniProt Q96SB4); assay: Selectivity interaction (KinomeScan (DiscoverX)) EUB0000666a SRPK1; settings: at 10 µM
D(3) dopamine receptor = D(3) dopamine receptor (Homo sapiens, UniProt P35462); assay: Selectivity interaction (Dopamine D3 receptor assay, human recombinant ) EUB0000877a DRD3
[10] = biological target: Mitogen-activated protein kinase 8 (Homo sapiens, UniProt P45983); settings: at 10 µM
[11] = biological target: T1, Inhibitor of nuclear factor kappa-B kinase subunit beta (Homo sapiens) (UniProt O14920); assay: Selectivity interaction (Kinase panel (Z-LYTE Assay)) EUB0001632a IKBKB; settings: at 10 µM
T1 sequence (whole entry): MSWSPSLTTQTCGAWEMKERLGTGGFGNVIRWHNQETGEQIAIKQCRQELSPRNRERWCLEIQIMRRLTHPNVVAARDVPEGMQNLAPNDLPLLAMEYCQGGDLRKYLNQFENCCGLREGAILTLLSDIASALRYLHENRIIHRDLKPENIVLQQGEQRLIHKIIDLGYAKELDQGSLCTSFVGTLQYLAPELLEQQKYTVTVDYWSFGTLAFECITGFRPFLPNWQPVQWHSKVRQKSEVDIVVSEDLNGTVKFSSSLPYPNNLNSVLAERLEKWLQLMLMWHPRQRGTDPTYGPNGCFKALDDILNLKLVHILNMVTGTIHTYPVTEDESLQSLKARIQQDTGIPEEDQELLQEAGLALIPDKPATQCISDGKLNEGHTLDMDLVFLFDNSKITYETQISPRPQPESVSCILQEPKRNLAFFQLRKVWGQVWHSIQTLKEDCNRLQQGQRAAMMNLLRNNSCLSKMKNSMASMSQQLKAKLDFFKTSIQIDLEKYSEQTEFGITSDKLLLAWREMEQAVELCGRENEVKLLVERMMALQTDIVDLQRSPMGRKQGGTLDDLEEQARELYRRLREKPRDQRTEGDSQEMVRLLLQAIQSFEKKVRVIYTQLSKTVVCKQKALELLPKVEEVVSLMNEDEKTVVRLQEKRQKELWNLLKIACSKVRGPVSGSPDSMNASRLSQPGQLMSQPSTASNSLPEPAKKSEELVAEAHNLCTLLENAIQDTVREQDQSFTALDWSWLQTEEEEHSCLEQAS

[12] = biological target: Mitogen-activated protein kinase kinase kinase 11 (Homo sapiens) (UniProt Q16584); assay: Selectivity interaction (LanthaScreen Eu Kinase Binding Assay) EUB0001632a MAP3K11; settings: at 10 µM
[13] = biological target: SWI/SNF-related matrix-associated actin-dependent regulator of chromatin subfamily A member 4 (Homo sapiens) (UniProt P51532); assay: Selectivity interaction (Bromodomain panel (DSF asssay)) EUB0000270b SMARCA4
[14] = biological target: Serine/threonine-protein kinase NIM1 (Homo sapiens, UniProt Q8IY84)
[15] = biological target: Serine/threonine-protein kinase 10 (Homo sapiens) (UniProt O94804); assay: Selectivity interaction (ActivX KiNativ screen (kinase selectivity in THP-1 cell lysates)) EUB0000639a STK10; type: subcellular; settings: lysate
[16] = biological target: Serine/threonine-protein kinase WNK2 (Homo sapiens) (UniProt Q9Y3S1); assay: Selectivity interaction (ActivX KiNativ screen (kinase selectivity in THP-1 cell lysates)) EUB0000639a WNK2; type: subcellular; settings: lysate, at 0.01 µM
[17] = biological target: Dual specificity protein kinase CLK3 (Homo sapiens, UniProt P49761); assay: Selectivity interaction (KinomeScan (DiscoverX)) EUB0000607a CLK3; settings: at 10 µM
[18] = biological target: Serine/threonine-protein kinase PAK 2 (Homo sapiens) (UniProt Q13177); assay: Selectivity interaction (KinomeScan (DiscoverX)) EUB0000607a PAK2; settings: at 10 µM
[19] = biological target: Tyrosine-protein kinase SYK (Homo sapiens, UniProt P43405); assay: Selectivity interaction (SelectScreen profiling (Invitrogen)) EUB0000607a SYK; settings: at 2 µM
[20] = biological target: Dual specificity testis-specific protein kinase 1 (Homo sapiens) (UniProt Q15569); assay: Selectivity interaction (KinomeScan (DiscoverX)) EUB0000607a TESK1; settings: at 10 µM
[21] = biological target: Casein kinase I isoform gamma-1 (Homo sapiens) (UniProt Q9HCP0); assay: Selectivity interaction (KinomeScan (DiscoverX)) EUB0001049a CSNK1G1; settings: at 1 µM
[22] = biological target: MAP kinase-interacting serine/threonine-protein kinase 1 (Homo sapiens) (UniProt Q9BUB5); assay: Selectivity interaction (Kinase panel (literature)) EUB0001199aCl MKNK1; settings: at 1 µM
MAP kinase-interacting serine/threonine-protein kinase 1 (Homo sapiens), sequence (Q9BUB5 whole entry, looked up): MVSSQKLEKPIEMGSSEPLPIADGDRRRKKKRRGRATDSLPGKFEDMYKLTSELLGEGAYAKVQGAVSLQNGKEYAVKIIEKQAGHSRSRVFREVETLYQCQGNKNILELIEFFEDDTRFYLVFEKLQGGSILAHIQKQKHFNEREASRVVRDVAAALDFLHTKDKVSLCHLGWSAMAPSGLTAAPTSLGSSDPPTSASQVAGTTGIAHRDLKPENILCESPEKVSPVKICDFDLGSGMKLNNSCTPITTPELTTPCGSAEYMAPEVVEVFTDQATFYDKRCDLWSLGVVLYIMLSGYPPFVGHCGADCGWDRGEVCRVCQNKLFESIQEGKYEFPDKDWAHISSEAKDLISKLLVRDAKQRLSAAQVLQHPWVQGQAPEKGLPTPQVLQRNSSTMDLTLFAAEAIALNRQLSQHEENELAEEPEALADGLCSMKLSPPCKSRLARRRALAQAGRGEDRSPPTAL

Serine/threonine-protein kinase 10 (Homo sapiens), sequence (O94804 whole entry, looked up): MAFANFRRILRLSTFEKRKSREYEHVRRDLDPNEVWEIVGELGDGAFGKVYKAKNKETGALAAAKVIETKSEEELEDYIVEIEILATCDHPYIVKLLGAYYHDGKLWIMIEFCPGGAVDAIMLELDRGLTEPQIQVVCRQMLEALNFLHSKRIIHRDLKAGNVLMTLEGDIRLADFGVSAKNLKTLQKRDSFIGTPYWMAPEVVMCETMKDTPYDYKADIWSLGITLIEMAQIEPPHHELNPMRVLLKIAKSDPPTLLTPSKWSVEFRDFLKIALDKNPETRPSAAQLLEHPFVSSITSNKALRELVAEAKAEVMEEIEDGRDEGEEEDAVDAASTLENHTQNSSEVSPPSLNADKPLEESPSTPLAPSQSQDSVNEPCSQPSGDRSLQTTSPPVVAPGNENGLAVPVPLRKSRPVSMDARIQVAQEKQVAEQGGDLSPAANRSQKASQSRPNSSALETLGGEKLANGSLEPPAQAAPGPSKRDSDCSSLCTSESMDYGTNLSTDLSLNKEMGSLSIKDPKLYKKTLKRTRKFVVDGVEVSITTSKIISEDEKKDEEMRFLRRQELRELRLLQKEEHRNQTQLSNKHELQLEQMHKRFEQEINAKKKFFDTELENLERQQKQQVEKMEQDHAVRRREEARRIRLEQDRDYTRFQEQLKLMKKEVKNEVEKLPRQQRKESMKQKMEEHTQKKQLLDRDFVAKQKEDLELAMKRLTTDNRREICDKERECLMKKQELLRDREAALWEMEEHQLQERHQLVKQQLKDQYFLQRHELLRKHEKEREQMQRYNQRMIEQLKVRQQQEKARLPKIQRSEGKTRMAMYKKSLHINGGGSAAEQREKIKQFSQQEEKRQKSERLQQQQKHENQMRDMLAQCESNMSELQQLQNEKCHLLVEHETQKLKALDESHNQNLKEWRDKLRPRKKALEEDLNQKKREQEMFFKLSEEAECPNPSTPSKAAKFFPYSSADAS
Serine/threonine-protein kinase WNK2 (Homo sapiens), sequence (Q9Y3S1 whole entry): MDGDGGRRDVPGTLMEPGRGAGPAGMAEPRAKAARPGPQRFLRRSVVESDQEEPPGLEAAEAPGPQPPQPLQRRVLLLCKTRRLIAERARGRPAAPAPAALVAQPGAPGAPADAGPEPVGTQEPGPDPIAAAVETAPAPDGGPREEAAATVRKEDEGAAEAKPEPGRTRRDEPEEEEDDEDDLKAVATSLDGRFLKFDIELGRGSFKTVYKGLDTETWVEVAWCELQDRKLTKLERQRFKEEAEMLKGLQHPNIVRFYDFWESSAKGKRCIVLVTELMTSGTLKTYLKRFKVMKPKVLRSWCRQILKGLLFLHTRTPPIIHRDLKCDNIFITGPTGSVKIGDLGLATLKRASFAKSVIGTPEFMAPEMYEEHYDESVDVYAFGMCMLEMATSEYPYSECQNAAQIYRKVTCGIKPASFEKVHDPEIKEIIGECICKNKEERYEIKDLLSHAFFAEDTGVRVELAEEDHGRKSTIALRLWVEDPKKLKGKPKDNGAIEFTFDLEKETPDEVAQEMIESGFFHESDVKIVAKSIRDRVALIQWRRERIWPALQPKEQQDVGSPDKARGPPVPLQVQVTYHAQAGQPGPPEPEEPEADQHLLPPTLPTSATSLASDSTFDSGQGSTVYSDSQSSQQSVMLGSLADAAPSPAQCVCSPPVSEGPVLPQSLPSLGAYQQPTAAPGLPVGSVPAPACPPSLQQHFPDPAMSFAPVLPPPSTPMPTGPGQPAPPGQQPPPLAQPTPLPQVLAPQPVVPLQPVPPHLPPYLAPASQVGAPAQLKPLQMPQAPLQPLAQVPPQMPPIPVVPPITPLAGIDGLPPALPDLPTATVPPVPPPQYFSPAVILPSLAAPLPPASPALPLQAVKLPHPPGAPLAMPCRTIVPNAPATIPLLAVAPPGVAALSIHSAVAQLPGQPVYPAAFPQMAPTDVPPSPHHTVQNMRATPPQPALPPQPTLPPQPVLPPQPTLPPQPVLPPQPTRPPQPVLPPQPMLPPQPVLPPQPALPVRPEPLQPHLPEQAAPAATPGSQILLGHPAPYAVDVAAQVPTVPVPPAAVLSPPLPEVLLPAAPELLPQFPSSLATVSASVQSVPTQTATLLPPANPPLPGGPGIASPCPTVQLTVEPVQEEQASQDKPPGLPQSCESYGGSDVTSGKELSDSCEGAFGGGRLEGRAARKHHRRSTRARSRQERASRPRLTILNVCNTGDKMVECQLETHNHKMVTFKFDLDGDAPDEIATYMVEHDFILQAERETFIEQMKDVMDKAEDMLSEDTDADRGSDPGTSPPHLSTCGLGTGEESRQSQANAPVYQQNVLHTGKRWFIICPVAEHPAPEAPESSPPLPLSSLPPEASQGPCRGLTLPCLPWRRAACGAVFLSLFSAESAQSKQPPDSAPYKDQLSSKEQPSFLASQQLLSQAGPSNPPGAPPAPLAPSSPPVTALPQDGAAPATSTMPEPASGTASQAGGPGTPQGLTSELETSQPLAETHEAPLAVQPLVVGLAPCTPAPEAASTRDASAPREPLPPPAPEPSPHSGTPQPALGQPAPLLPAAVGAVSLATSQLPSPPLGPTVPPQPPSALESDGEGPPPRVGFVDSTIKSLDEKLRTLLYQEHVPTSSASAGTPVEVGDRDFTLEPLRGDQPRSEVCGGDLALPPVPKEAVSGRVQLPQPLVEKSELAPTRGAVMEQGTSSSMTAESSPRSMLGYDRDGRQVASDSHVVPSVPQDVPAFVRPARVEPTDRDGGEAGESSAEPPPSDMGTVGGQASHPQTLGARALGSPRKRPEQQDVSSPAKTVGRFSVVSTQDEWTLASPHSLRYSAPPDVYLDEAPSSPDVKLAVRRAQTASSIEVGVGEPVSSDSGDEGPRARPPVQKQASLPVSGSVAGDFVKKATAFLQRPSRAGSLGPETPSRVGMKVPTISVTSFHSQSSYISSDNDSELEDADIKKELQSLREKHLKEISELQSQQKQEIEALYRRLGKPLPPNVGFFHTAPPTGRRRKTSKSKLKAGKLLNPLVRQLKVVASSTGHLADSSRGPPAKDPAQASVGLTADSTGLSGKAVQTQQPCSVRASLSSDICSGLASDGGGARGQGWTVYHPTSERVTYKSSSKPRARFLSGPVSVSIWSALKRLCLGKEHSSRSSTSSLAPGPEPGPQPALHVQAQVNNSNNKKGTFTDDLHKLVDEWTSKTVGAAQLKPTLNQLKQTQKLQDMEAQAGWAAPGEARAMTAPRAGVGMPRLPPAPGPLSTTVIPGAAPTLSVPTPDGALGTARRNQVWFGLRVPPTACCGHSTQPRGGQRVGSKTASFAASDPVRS
D(3) dopamine receptor, sequence (P35462 whole entry): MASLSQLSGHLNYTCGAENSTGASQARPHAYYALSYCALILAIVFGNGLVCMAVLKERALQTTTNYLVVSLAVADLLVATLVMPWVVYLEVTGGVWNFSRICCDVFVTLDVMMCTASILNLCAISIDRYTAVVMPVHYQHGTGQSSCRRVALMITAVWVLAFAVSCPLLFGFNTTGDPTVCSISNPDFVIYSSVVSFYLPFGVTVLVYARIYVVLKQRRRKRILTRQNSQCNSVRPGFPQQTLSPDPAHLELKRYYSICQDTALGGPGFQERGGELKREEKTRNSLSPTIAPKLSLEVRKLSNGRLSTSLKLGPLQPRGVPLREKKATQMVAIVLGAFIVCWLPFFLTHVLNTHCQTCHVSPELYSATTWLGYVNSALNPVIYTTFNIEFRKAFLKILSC
Dual specificity testis-specific protein kinase 1 (Homo sapiens), sequence (Q15569 whole entry, looked up, canonical isoform): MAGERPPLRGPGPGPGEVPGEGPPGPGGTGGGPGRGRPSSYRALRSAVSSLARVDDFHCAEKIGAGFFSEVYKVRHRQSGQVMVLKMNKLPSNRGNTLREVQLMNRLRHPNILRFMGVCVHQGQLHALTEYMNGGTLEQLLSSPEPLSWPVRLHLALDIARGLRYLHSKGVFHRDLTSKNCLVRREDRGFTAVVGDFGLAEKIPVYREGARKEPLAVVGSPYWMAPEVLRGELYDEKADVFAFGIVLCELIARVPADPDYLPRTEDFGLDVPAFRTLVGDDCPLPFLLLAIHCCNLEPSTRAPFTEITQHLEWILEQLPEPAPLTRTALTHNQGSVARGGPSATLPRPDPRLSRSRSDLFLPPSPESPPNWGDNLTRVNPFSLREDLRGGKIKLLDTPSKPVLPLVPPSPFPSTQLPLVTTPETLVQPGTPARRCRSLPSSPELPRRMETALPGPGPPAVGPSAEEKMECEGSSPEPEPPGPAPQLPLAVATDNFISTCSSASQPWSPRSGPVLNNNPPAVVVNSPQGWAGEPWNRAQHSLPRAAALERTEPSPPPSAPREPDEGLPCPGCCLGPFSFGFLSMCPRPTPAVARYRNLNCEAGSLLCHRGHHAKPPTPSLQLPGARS

SMILES: CCN(CC)CCCCNc1ncc2cc(-c3cc(OC)cc(OC)c3)c(NC(=O)NC(C)(C)C)nc2n1
% of control [1]: 3.7% | % of control [2]: 0.1%

SMILES: CCC(=O)N1CCN(c2ccc(-n3c(=O)ccc4cnc5ccc(-c6cnc7ccccc7c6)cc5c43)cc2C(F)(F)F)CC1
% of control [3]: 18%

SMILES: CN(C)CCOc1ccc(-c2nc(-c3ccncc3)c(-c3ccc4c(c3)CC/C4=N\O)[nH]2)cc1
% of control [4]: 74%

SMILES: O=C(NOC[C@H](O)CO)c1ccc(F)c(F)c1Nc1ccc(I)cc1F
% of control [8]: 94% | % of control [9]: 100% | % of control (SRSF protein kinase 1): 100%

SMILES: CCC(=O)N1CC[C@H](Nc2ncnc3c2CN(c2cnc(OC)c(C(F)(F)F)c2)CC3)C1 [LENIOLISIB]
IC50 (D(3) dopamine receptor): > 30 µM

SMILES: Cc1cc([C@@H](C)Nc2ccccc2C(=O)O)c2nc(N3CCOCC3)cc(=O)n2c1 [AZD-6482]
% of control [10]: 100%

SMILES: Cn1cc(-n2cnc3c(NCc4nc5cc(Cl)c(Cl)cc5[nH]4)nc(N4CCOCC4)nc32)cn1
% of control [11]: -3.93% | % of inhibition [12]: -0.811%

SMILES: CC[C@@H]1[C@H](F)C(=O)N[C@@H]1COc1nccc2cc(C(N)=O)c(OC)cc12 [ZIMLOVISERTIB]
% of inhibition ([15]; at 0.01 µM): -11.4% | % of inhibition ([15]; at 0.04 µM): -6.2% | % of inhibition ([15]; at 0.2 µM): -5.3% | % of inhibition ([15]; at 1 µM): 2.8% | % of inhibition ([15]; at 5 µM): -12.4% | % of inhibition [16]: 3.3%

SMILES: CNC(=O)Nc1ccc(-c2nc(N3CC4CCC(C3)O4)c3cnn(C4CCC5(CC4)OCCO5)c3n2)cc1
% of control [17]: 31% | % of control [18]: 99% | % of inhibition [19]: 1% | % of control [20]: 80%

SMILES: COc1cc(Nc2nc(C)cc(-c3cnn4nc(OC)ccc34)n2)cc(C(F)(F)F)c1
% of control [21]: 100%

Second part, the compound after the results:

% of control [5]: 94%
SMILES: C=CC(=O)Nc1cccc(C(=O)Nc2ccc(Nc3cc(-c4[nH]c(SC)nc4C)ccn3)cc2)c1

EC50 [6]: > 50 µM
SMILES: CN(C(=O)c1cnn2cccnc12)c1cc2c(cc1N1CCOCC1)C(=O)N(C[C@@H](F)C(C)(C)O)C2

dTM [7]: < 2 K
SMILES: CN(C)CCCOc1ccc(-c2cc(NCCCn3cccn3)nc(S(C)(=O)=O)n2)cc1

dTM [13]: -1.35 K
SMILES: Cc1cc(CN)cc(C)c1-c1ncn(C)c1-c1cncn1C

IC50 [14]: > 10 µM
SMILES: CCc1cccc(CC)c1NC(=O)c1nn(C)c2c1CCc1cnc(Nc3ccc(C(=O)NC4CCN(C)CC4)cc3OC(F)(F)F)nc1-2

% of inhibition [22]: -1%
SMILES: CN1Cc2nccc(-c3cn(C)nc3-c3ccc(F)cc3)c2C1=O
